In one assay the test system is E. coli 25922. The format is cell-based, Escherichia coli. As for the experimental part: (§1) Minimal inhibitory concentration (MIC) was determined using the microdilution assay. Mid-log-phase bacteria at 5 × 10^5 CFU/ml were incubated in a 96-well plate with serial two-fold dilutions of the tested compound for 18–24 hr at 37 °C (final volume of 200 µl). O.D. at 620 nm was measured (Synergy HT, BioTek Instruments, Winooski, VT, USA), and the MIC was determined as the lowest concentration for which no increase in O.D. was detected.

A further assay relates to GPB and GNB. The experiment in a line: Effect observed at low concentrations, analog series. The format is cell-based. The note with it: summary of this and previous studies. As for the experimental part: Table 2 Modulating biophysical properties of a core sequence by conjugating an N-terminal acyl. | column: Effect observed at low concentrations (<3 µM)
Assay [1] relates to S. mutans ATCC 35668 biofilm. The experiment in a line: Anti-biofilm activity on pre-formed biofilm. The format is cell-based, Streptococcus mutans. The following applies: ≥0.5 mM, within one hour of exposure, inoculum 10^9 CFU/ml. As for the experimental part:
Anti-biofilm activity was evaluated against established biofilms in 96-well plates as follows. 200 µl of mid-log-phase S. mutans 35668 at 5 × 10^5 CFU/ml in BHI containing 2% sucrose were placed in each well, and plates were incubated for 24 hr at 37 °C without shaking. Unattached cells were removed by decanting the plates and biofilms were washed three times with milliQ water. Solutions of the tested compounds were placed on the biofilms for up to 3 hr at 37 °C without shaking. Plates were decanted in 0.5 hr intervals and biofilms were washed three times with milliQ water to remove any compound residues. Biofilms were scraped from the bottom of the wells, suspended in BHI and sonicated for 5 min in a sonication bath, subjected to serial 10-fold dilutions in saline and plated on BHI agar for enumeration.

The subject of the next assay is E. coli ML-35p. The experiment in a line: Outer and cytoplasmic membrane permeabilization (nitrocefin, ONPG, EtBr). Format: cell-based, Escherichia coli. The following applies: ONPG and ethidium bromide (CM), 30 min, 37 °C. As for the experimental part:
Cytoplasmic membrane permeation to ethidium bromide (EtBr) was evaluated as follows: Mid-log-phase bacteria at 1 × 10^8 CFU/ml were centrifuged for 5 min at 15,000 g. Pellet was washed twice with PBS containing 0.5% glucose (pH = 7.4), suspended in the same buffer and incubated for 10 min at 37 °C with shaking. 180 µl of the bacterial suspension were mixed in a 96-well plate with 25 µl of the tested compound and EtBr (EtBr final concentration = 1 µg/ml) and fluorescence was recorded immediately (excitation: 535 nm, emission: 590 nm) for up to 30 min at 37 °C with shaking (Synergy HT, BioTek Instruments, Winooski, VT, USA).
Outer and cytoplasmic membrane permeation in Gram-negative bacteria was assessed using the engineered E. coli ML-35p by monitoring the chromogenic hydrolysis of two indicators: ortho-nitrophenyl-β-galactoside (ONPG) and nitrocefin. Mid-log-phase E. coli ML-35p were centrifuged for 5 min at 15,000 g and the supernatant was removed. Pellet was washed three times with sodium phosphate buffer (SPB; 10 mM NaH2PO4, pH = 7) and suspended in the same buffer (O.D. at 620 nm = 1). Bacteria were then 10-fold diluted into SPB containing 3% TSB. […] Hydrolysis of ONPG and nitrocefin was monitored immediately by recording the absorbance at 420 nm and 486 nm respectively, for 30 min at 37 °C with shaking (Synergy HT, BioTek Instruments, Winooski, VT, USA).

The test system of a further assay is Fusobacterium. Format: cell-based, Fusobacterium nucleatum. The following applies: 48 h. From the text:
(§2) Gram-negative bacteria tested were: ATCC strains Escherichia coli 25922, 43894, Pseudomonas aeruginosa 27853, 9027, Acinetobacter baumannii 19606, A. caloaceticus 31299, Salmonella Typhimurium 14028, Fusobacterium nucleatum 23726, Porphyromonas gingivalis 53977, clinical isolates E. coli 14182, 14384, U-16327, U-16329, P. aeruginosa 1278, Klebsiella pneumoniae 1287, K2–224, C2, A. baumannii 1279, 1280, 1281, F. nucleatum PK 1594, the engineered E. coli ML-35p and the isogenic K-12 pair AG100, AG100a (ΔacrAB). Dental related bacteria (generous gift of Prof. Doron Steinberg and Gilad Bachrach from the Hebrew University of Jerusalem) appear in bold characters.
(§3) Staphylococci, Bacilli, Escherichia, Pseudomonas, Acinetobacter, Salmonella and Klebsiella species were grown in Luria Bertani broth (LB; 5 gr/l NaCl, 5 gr/l yeast extract, 10 gr/l tryptone). Enterococci and E. coli ML-35p were grown in Tryptic Soy Broth (TSB). Listeria and Streptococci were grown in Brain Heart Infusion (BHI). All bacteria were grown over-night at 37 °C with shaking. S. mutans 35668 plated on BHI agar for enumeration was grown for 48 hr. […]
(§4) Minimal inhibitory concentration (MIC) was determined using the microdilution assay. […] O.D. at 620 nm was measured (Synergy HT, BioTek Instruments, Winooski, VT, USA), and the MIC was determined as the lowest concentration for which no increase in O.D. was detected.

The next assay has as its system Enterococci. Format: cell-based. As for the experimental part:
(§5) Staphylococci, Bacilli, Escherichia, Pseudomonas, Acinetobacter, Salmonella and Klebsiella species were grown in Luria Bertani broth (LB; 5 gr/l NaCl, 5 gr/l yeast extract, 10 gr/l tryptone). Enterococci and E. coli ML-35p were grown in Tryptic Soy Broth (TSB). Listeria and Streptococci were grown in Brain Heart Infusion (BHI). All bacteria were grown over-night at 37 °C with shaking. S. mutans 35668 plated on BHI agar for enumeration was grown for 48 hr. S. mutans UA159 was grown in 5% CO2 enriched atmosphere. Fusobacterium and Porphyromonas were grown in Wilkins-Chalgren growth medium and an anaerobic atmosphere.
as §1

The next assay relates to Listeria. The format is cell-based. As for the experimental part:
as §5, §1

The next assay concerns Staphylococci. Format: cell-based. As for the experimental part:
as §5, §1

For the next assay, the system named is Streptococci. The format is cell-based. As for the experimental part:
as §5, §1

For the next assay, the system named is Klebsiella. The format is cell-based.
Text: as §2, §5, §1

Assay [2] relates to Gram-negative bacteria (GNB). The format is cell-based. The following applies: 24 GNB strains (seven species).
Text: as §2, §5, §1

The test system of a further assay is Pseudomonas. The format is cell-based. The following applies: 3 strains; microdilution, LB, 18–24 hr, 37 °C; average of at least 2 independent experiments in duplicate.
Text: as §2, §5, §1

The subject of another assay is Porphyromonas. The format is cell-based, Porphyromonas gingivalis. The note with it: 48 h.
Text: as §2, §3, §4

In assay [3] the test system is Gram-positive bacteria (GPB). The following applies: 48 h.
The next assay deals with S. mutans. Put plainly: microbe, parasite or virus in culture. Format: cell-based, Streptococcus mutans. As for the experimental part:
as §5, §1

Values after ≈ are worked out from the molar mass of the structure shown. Where a SMILES comes first, the peptide text is derived from it. [ ]: non-standard residue; d: D form. The star is where a group is joined. Myristoyl = CCCCCCCCCCCCCC(=O)*; 12Ado = NCCCCCCCCCCCC(=O)O

One may read the MIC50 as an inhibitory concentration at the 50% level, which refers to growth in some studies and to a panel of isolates in others.

`CCCCCCCCCCCCCC(=O)N[C@@H](CCCCN)C(=O)N[C@@H](CCCCN)C(=O)NCCCCCCCCCCCC(=O)N[C@@H](CCCCN)C(N)=O` [C14KKc12K] (Myristoyl-KK[12Ado]K-NH2): the MIC in the assay with E. coli 25922 is on record as 6 µM; with S. mutans, 0.78 µM. The “Effect observed at low concentrations (<3 µM)” value with GPB and GNB is “High efficacy in membranes disruption leading to a bactericidal mode of action in both GPB & GNB”. The “killing of the initial inoculum in preformed biofilm” value in assay [1] was greater than 99%. In addition, the “concentration (MIC value) at which both OM and CM were permeabilized” value in the assay on E. coli ML-35p is 3 µM. The MIC range with Fusobacterium is 6.25 µM; with Enterococci, 3.12 to 6.25 µM; with Listeria it was 3.12 µM; in the assay with Staphylococci, 1.56 to 3.12 µM; with Streptococci, 0.78 to 3.12 µM; in the assay on Klebsiella, 3.12 to 12.5 µM. The results for the MIC range in the assay on Pseudomonas and with Porphyromonas were 6.25 to 12.5 µM and 3.12 µM, respectively. The MIC50 in assay [2] is reported as 6 µM; in assay [3], 3 µM (≈ 2.43 µg/mL).

These data come from publication PMC5438364, “A broad-spectrum bactericidal lipopeptide with anti-biofilm properties” (Scientific Reports, 2017).
